We go through nine compounds from patent US5049694A, “Pharmaceutical composition having relaxing activity which contains a nitrate ester as active substance” (Cedona Pharmaceuticals B.V., priority 1988, dated 1991).

pEC50: −log10 of the molar value. Where two headings read alike, the source gives them in different places.

In data set [1] the test system is contracted strips of the rats' arota. Description: relaxing potency in vitro on phenylefrine-contracted strips of rat aorta. Format: cell-based, rat (male Wistar). Particulars: read-out: EC50 (concentration with which relaxation took place up to 50% of the contraction induced by 10^-7 M phenylefrine). How it is done:
The relaxing potency of the compounds as described is tested in vitro on contracted strips of the rats' arota. Male Wistar rates (200-220 g) are killed by decapitation. The thoracal aorta is removed and is helically cut into strips (length: ±10 mm, width: ±2 mm; 4 strips per rat).
The strips are suspended in organ baths filled with 20 ml of Krebs' medium with a constant temperature of 37° C. passing through O2 /CO2 (95/5) and subsequently for 2 h equilibrated under an isotonic load of 500 mg. The medium is renewed every 20 minutes.
After equilibration contraction takes place by addition of 10^-7M phenylefrine to the medium. After reaching the maximal contraction the composition with the organic nitrate ester to be tested in cumulative concentration steps is relaxed.
The degree of relaxation is expressed as a percentage of the maximal contraction (=100%) reached with 10^-7 M phenylefrine. The relaxing potency of the tested compounds is expressed as the EC50 : the concentration with which relaxation took place up to 50% of the contraction induced by 10^-7 M phenylefrine. From a number of compounds the EC50 -values have been stated in Table 1. For comparison the EC50 -values of glyceryltrinitrate and isosorbidedinitrate have also been included.

Data set [2] concerns heart. Particulars: therapeutical use; cited from earlier work.
The conditions of data set [3]: chronical administration, clinical; cited from earlier work.

With `O=[N+]([O-])OCCc1ccccc1` [Compound 1, 2-phenylethanol nitrate], the pEC50 in data set [1] was 6.92. Take `O=[N+]([O-])OCCc1cccc2ccccc12` [Compound 9, 2-(1-naphthyl)ethanol nitrate]: the pEC50 in data set [1] (Rattus norvegicus) is 8.38. On the same count and under the same terms, the figure for `O=[N+]([O-])OCC(CO[N+](=O)[O-])c1ccc2ccccc2c1` [Compound 10, 2-(2-naphthyl)-1,3-propanediol nitrate] is 7.89.

Regarding `O=[N+]([O-])OCCc1ccc(CCO[N+](=O)[O-])cc1` [Compound 11, 1,4-bis(2-nitroxyethyl)benzene], in data set [1] (Rattus norvegicus), the pEC50 is 8.34. Same read-out and setting: the figure for `Cc1c(C)c(CCO[N+](=O)[O-])c(C)c(C)c1CCO[N+](=O)[O-]` [Compound 12, 1,4-bis(2-nitroxyethyl)-2,3,5,6-tetramethylbenzene] is 7.11; for `O=[N+]([O-])OC(Cc1ccccc1)Cc1ccccc1` [Compound 23, 1,3-diphenyl-2-propanol nitrate] it is 6.40; for `O=[N+]([O-])OCCOC(c1ccccc1)c1ccccc1` [Compound 25, 2-diphenylmethoxyethanol nitrate] it is 6.60. `O=[N+]([O-])O[C@@H]1CO[C@H]2[C@@H]1OC[C@@H]2OC(c1ccccc1)c1ccccc1` [Compound 28, 2-diphenylmethyl-1,4:3,6-dianhydroglucitol nitrate]: the pEC50 in data set [1] (Rattus norvegicus) is 6.70. Regarding `O=[N+]([O-])OCC(CO[N+](=O)[O-])O[N+](=O)[O-]` [glyceryl trinitrate], the pEC50 in data set [1] (rat thoracal aorta strips, contracted with 10^-7 M phenylefrine, cumulative concentrations, 37° C.) is 8.14. Further, in data set [2], the “need of oxygen to the heart” value is on record as “lower need of oxygen to the heart”; the “post-load of the heart” value is “also affected, be it to a lower extent”; the “pre-load of the heart” value is “diminish especially the pre-load of the heart”. Further, the development of tolerance entry in data set [3] is recorded as “development of so-called tolerance”.
